Tests used:
PGI2 receptor = target: T1, PGI2 receptor (Homo sapiens, UniProt P43119); test: Inhibitory activity on binding of ^3 H-iloprost to PGI2 receptor on human blood platelet membrane fraction; settings: 10 nM [^3H]-iloprost, human blood platelet membrane fraction (0.3 mg protein), 24° C., 30 min, pH 7.4
T1 construct: human blood platelet membrane fraction (0.3 mg protein) was added; from tissue; host or cells: human blood platelets (membrane fraction)
Description: i) Inhibitory activity on binding of ^3 H-iloprost to PGI2 receptor on human blood platelet membrane fraction Method 50 mM Tris-HCl buffer (pH 7.4) containing 15 mM MgCl2, 5 mM EDTA and 10 nM [^3 H]-iloprost were used as reaction medium. To 0.2 ml of the reaction medium, human blood platelet membrane fraction (0.3 mg protein) was added with or without a test compound. The mixture was incubated at 24° C. for 30 min. After incubation, 4 ml of ice-cold 10 mM Tris-HCl buffer (pH 7.4) was added to the reaction mixture, and filtered through Whatman GF/B glass fiber filter, and washed 4 times with 4 ml of ice-cold 10 mM Tris-HCl buffer (pH 7.4) to separate bound and free [^3 H]-iloprost. After washing, the filter was dried and radioactivity was counted. Non-specific binding was obtained by performing parallel binding experiments in the presence of 10 μM non-labelled iloprost. Specific binding was calculated by subtracting the non-specific binding from the total binding. The inhibitory effect of test compound was calculated from the following equation. The percentage of inhibition (%)=100-(B1 /B0 ×100) B1 : specific [^3 H]-iloprost binding in presence of test compound B0 : specific [^3 H]-iloprost binding in absence of test compound

[1] = system: human blood platelet aggregation; test: Inhibitory effect on human blood platelet aggregation (ADP-induced, platelet-rich plasma); assay type: cell-based; settings: human PRP (5×10^5 platelets/mm^3), test compound 1 min prior to ADP (4 μm)
Description: ii) Inhibitory effect on human blood platelet aggregation
Platelet-rich plasma (PRP) was prepared from human blood (5×10^5 platelets/mm^3), and a test compound was added to PRP 1 min prior to the addition of ADP (4 μm). The aggregation was monitored using a platelet aggregometer (NBS HEMA TRACER 601, Niko Bioscience, Japan).

T1 sequence (P43119 whole entry): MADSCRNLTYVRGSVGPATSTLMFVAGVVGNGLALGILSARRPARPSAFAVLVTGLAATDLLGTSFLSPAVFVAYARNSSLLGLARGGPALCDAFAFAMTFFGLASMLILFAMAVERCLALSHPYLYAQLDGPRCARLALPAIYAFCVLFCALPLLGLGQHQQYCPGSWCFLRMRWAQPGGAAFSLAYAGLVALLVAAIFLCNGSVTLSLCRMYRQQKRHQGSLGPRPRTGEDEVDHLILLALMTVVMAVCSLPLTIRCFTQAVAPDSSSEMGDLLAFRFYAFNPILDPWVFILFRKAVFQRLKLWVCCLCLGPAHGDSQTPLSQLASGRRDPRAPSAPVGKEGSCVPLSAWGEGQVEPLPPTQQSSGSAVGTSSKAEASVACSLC

IC50 (PGI2 receptor) | IC50 [1] | SMILES
2300 nM | 13000 nM | O=C(O)COc1cccc2c1CCC(Cn1cnc(-c3ccccc3)c1-c1ccccc1)C2 (centres unmarked) [2(a), [2-(4,5-Diphenylimidazol-1-yl)methyl-1,2,3,4-tetrahydronaphthalen-5-yloxy]acetic acid]
3900 nM | 12000 nM | O=C(O)COc1cccc2c1CCC(CSc1nc(-c3ccccc3)c(-c3ccccc3)[nH]1)C2 (centres unmarked) [2(c), [2-(4,5-Diphenylimidazol-2-ylthio)methyl-1,2,3,4-tetrahydronaphthalen-5-yloxy] acetic acid]
6800 nM | 20000 nM | O=C(O)COc1cccc2c1CCC(COc1nc(-c3ccccc3)c(-c3ccccc3)n1-c1ccccc1)C2 (centres unmarked) [2(d), [2-(1,4,5-Triphenylimidazol-2-yloxy)methyl-1,2,3,4-tetrahydronaphthalen-5-yloxy] acetic acid]
2600 nM | 15000 nM | O=C(O)COc1cccc2c1CCC(Cn1c(-c3ccccc3)c(-c3ccccc3)n(-c3ccccc3)c1=O)C2 (centres unmarked) [2(e), [2-(3,4,5-Triphenyl-2-oxo-2,3-dihydroimidazol-1-yl)methyl-1,2,3,4-tetrahydronaphthalen-5-yloxy] acetic acid]
350 nM | 300 nM | O=C(O)COc1cccc2c1CCC(Cn1cnc(C(c3ccccc3)c3ccccc3)c1)C2 (centres unmarked) [2(g), [2-(4-Diphenylmethylimidazol-1-yl)methyl-1,2,3,4-tetrahydronaphthalen-5-yloxy] acetic acid]
360 nM |  | O=C(O)COc1cccc2c1CCC(Cn1ccc(C(c3ccccc3)c3ccccc3)n1)C2 (centres unmarked) [2(h), [2-(3-Diphenylmethylpyrazol-1-yl)methyl-1,2,3,4-tetrahydronaphthalen-5-yloxy] acetic acid]
210 nM | 150 nM | O=C(O)COc1cccc2c1CCC(Cn1cc(C(c3ccccc3)c3cccnc3)cn1)C2 (centres unmarked) [2(i), [2-(4-((3-pyridyl)phenylmethyl)pyrazol-1-yl)methyl-1,2,3,4-tetrahydronaphthalen-5-yloxy] acetic acid]
5000 nM | 11000 nM | O=C(O)COc1cccc2c1CCC(CCSc1nc(-c3ccccc3)c(-c3ccccc3)[nH]1)C2 (centres unmarked) [4(b), [2-(2-(4,5-Diphenylimidazol-2-ylthio)ethyl)-1,2,3,4-tetrahydronaphthalen-5-yloxy] acetic acid]
8200 nM |  | O=C(O)COc1cccc2c1CCC(CCOc1nc(-c3ccccc3)c(-c3ccccc3)n1-c1ccccc1)C2 (centres unmarked) [4(c), [2-(2-(1,4,5-Triphenylimidazol-2-yloxy)ethyl)-1,2,3,4-tetrahydronaphthalen-5-yloxy] acetic acid]
1400 nM |  | O=C(O)COc1cccc2c1CCC(CCn1cc(C(c3ccccc3)c3ccccc3)cn1)C2 (centres unmarked) [4(f), [2-(2-(4-Diphenylmethylpyrazol-1-yl)ethyl)-1,2,3,4-tetrahydronaphthalen-5-yloxy] acetic acid]
4000 nM | 16000 nM | O=C(O)COc1cccc2c1CCCC2CCn1c(-c2ccccc2)c(-c2ccccc2)n(-c2ccccc2)c1=O (centres unmarked) [6(b), [1-(2-(1,4,5-Triphenyl-2-oxo-2,3-dihydroimidazol-3-yl)ethyl)-1,2,3,4-tetrahydronaphthalen-5-yloxy] acetic acid]
58 nM |  | O=C(O)COc1cccc2c1CCCC2CCn1cc(C(c2ccccc2)c2ccccc2)cn1 (centres unmarked) [6(c), [1-(2-(4-Diphenylmethylpyrazol-1-yl)ethyl)-1,2,3,4-tetrahydronaphthalen-5-yloxy] acetic acid]
260 nM | 1000 nM | O=C(O)COc1cccc2c1CCC(Cc1nc(C(c3ccccc3)c3ccccc3)no1)C2 (centres unmarked) [8(a), [2-(3-Diphenylmethyl-1,2,4-oxadiazol-5-yl)methyl-1,2,3,4-tetrahydronaphthalen-5-yloxy] acetic acid]
160 nM |  | O=C(O)COc1cccc2c1CCC(Cn1cc(C(c3ccccc3)c3cccnc3)cn1)=C2 (centres unmarked) [22(a), [2-(4-((3-Pyridyl)phenylmethyl)pyrazol-1-yl)methyl-3,4-dihydronaphthalen-5-yloxy] acetic acid]
43 nM | 45 nM | O=C(O)COc1cccc2c1CCC(Cn1cc(C(c3ccccc3)c3ccccc3)cn1)C2 (centres unmarked) [Example 2, [2-(4-Diphenylmethylpyrazol-1-yl)methyl-1,2,3,4-tetrahydronaphthalen-5-yloxy]acetic acid]
5000 nM |  | O=C(O)COc1cccc2c1CCCC2CCn1cnc(-c2ccccc2)c1-c1ccccc1 (centres unmarked) [Example 6, [1-[2-(4,5-Diphenylimidazol-1-yl)ethyl]-1,2,3,4-tetrahydronaphthalen-5-yloxy] acetic acid]
2000 nM |  | O=C(O)COc1cccc2c1CCCC2CCc1nc(C(c2ccccc2)c2ccccc2)no1 (centres unmarked) [Example 8, [1-[2-(3-Diphenylmethyl-1,2,4-oxadiazol-5-yl)ethyl]-1,2,3,4-tetrahydronaphthalen-5-yloxy] acetic acid]
1800 nM | 5100 nM | O=C(O)COc1cccc2c1CCC(Cc1nc(C(c3ccccc3)c3ccccc3)co1)C2 (centres unmarked) [Example 10, [2-(4-Diphenylmethyloxazol-2-yl)methyl-1,2,3,4-tetrahydronaphthalen-5-yloxy] acetic acid]
320 nM | 1000 nM | O=C(O)COc1cccc2c1CCC(Cc1coc(C(c3ccccc3)c3ccccc3)n1)C2 (centres unmarked) [Example 12, [2-(2-Diphenylmethyloxazol-4-yl)methyl-1,2,3,4-tetrahydronaphthalen-5-yloxy] acetic acid]
940 nM | 1600 nM | CCc1oc(C(c2ccccc2)c2ccccc2)nc1CC1CCc2c(cccc2OCC(=O)O)C1 (centres unmarked) [Example 14, [2-(2-Diphenylmethyl-5-ethyloxazol-4-yl)methyl-1,2,3,4-tetrahydronaphthalen-5-yloxy] acetic acid]
6800 nM | 12000 nM | O=C(O)COc1cccc2c1CCC(Cc1c[nH]c(C(c3ccccc3)c3ccccc3)n1)C2 (centres unmarked) [Example 16, [2-(2-Diphenylmethylimidazol-4-yl)methyl-1,2,3,4-tetrahydronaphthalen-5-yloxy] acetic acid]
18 nM | 93 nM | O=C(O)COc1cccc2c1CCC(Cn1cc(C(c3ccccc3)c3ccccc3)cn1)=C2 [Example 22, [2-(4-(Diphenylmethyl)pyrazol-1-yl)methyl-3,4-dihydronaphthalen-5-yloxy] acetic acid]
8000 nM |  | O=C(O)COc1cccc2c1CCC(Cn1cc(C(c3ccccc3)n3ccnc3)cn1)C2 (centres unmarked) [Example 24, [2-(4-((1-Imidazolyl)phenylmethyl)pyrazol-1-yl)methyl-1,2,3,4-tetrahydronaphthalen-5-yloxy] acetic acid]
